This passage reports RBA, Activity and EC50 results from ChEMBL document CHEMBL2029328, “Identification and structure-activity relationships of a novel series of estrogen receptor ligands based on 7-thiabicyclo[2.2.1]hept-2-ene-7-oxide” (J Med Chem, 2012).

For orientation: EC50 means the concentration needed to bring the measured effect to its halfway point. Read a high EC50 as lower potency in that assay.

Experiment [1] addresses T1, Estrogen receptor beta (Homo sapiens, UniProt Q92731). Briefly: Displacement of [3H]estradiol from human ERbeta after 18 to 24 hrs. Background: Displacement assays read how much labelled ligand stays bound in the presence of the test substance.
Experiment [2] addresses T1, Estrogen receptor beta. The experiment can be described thus: Agonist activity at human ERbeta expressed in HepG2 cells up to 10^-5 M after 24 hrs by luciferase reporter gene assay relative to E2. Type of experiment: functional, cell-based. For orientation: A reporter such as luciferase makes a cellular process visible.
In experiment [3] the target is T2, Estrogen receptor (Homo sapiens) (UniProt P03372).
T2 sequence (whole entry): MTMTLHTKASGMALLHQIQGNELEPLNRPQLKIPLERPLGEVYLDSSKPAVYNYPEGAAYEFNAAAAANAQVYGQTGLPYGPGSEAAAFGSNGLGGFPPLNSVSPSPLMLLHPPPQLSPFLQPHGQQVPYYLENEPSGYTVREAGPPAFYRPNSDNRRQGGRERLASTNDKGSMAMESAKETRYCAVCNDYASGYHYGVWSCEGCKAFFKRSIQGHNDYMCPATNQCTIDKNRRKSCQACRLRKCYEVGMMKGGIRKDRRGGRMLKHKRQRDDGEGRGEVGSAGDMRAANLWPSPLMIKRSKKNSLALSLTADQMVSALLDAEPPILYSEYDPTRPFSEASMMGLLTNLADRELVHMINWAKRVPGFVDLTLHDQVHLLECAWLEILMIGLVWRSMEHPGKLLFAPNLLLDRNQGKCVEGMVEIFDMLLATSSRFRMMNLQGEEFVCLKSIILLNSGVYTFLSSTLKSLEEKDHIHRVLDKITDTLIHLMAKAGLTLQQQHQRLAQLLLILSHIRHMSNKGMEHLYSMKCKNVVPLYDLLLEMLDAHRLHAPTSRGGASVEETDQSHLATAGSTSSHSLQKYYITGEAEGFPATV
The experiment can be described thus: Displacement of [3H]estradiol from human ERalpha after 18 to 24 hrs.

Experiment [4] deals with T2, Estrogen receptor (Homo sapiens). The experiment can be described thus: Agonist activity at human ERalpha expressed in HepG2 cells up to 10^-5 M after 24 hrs by luciferase reporter gene assay relative to E2. Type of experiment: functional, cell-based.
The target in a further experiment is T3, Estrogen receptor (Homo sapiens, UniProt P03372).
T3 sequence (P03372 whole entry): T2 sequence (whole entry)

T1 sequence (Q92731 whole entry): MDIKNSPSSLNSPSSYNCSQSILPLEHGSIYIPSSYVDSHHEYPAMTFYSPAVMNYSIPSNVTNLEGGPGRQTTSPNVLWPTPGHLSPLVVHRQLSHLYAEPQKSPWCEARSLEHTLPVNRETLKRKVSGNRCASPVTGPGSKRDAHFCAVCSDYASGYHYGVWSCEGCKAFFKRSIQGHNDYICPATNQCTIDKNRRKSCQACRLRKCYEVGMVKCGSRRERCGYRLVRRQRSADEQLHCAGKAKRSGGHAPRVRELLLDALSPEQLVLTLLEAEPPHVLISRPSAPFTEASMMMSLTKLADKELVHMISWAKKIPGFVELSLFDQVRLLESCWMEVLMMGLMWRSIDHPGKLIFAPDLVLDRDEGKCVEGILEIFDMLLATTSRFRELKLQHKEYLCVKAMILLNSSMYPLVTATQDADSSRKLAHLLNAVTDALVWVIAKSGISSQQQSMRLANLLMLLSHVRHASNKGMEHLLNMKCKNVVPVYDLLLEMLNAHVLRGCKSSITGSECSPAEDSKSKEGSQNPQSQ

Regarding `CCOC(=O)[C@@H]1[C@H](C(=O)OCC)[C@@H]2C(c3ccc(O)c(C)c3)=C(c3ccc(O)c(C)c3)[C@H]1[S+]2[O-]` (stereo partly drawn), the RBA was 0.019% at Estrogen receptor beta [1] and 0.026% in experiment [3]. The Activity at Estrogen receptor beta [2] was 3.6%; in experiment [4] it was 22%.
With `CCOC(=O)[C@@H]1[C@H](C(=O)OCC)[C@@H]2C(c3ccc(O)cc3)=C(c3ccc(O)cc3)[C@H]1[S+]2[O-]` (stereo partly drawn), the RBA at Estrogen receptor beta [1] is 0.048%; in experiment [3], 0.022%. Moreover, the Activity on Estrogen receptor beta [2] was 27%; in experiment [4] it was 55%.
As to `O=C1[C@@H]2[C@H](C(=O)N1c1ccccc1)[C@@H]1C(c3ccc(O)cc3)=C(c3ccc(O)cc3)[C@H]2[S+]1[O-]` (mixture of isomers), on Estrogen receptor, the EC50 came to 7100 nM. Also, the results for the RBA (on Estrogen receptor beta [1]; in experiment [3]) were 0.013% and 0.017%, respectively. The Activity at Estrogen receptor beta [2] was 24%; in experiment [4], 31%.
For the compound `Cc1cc(C2=C(c3ccc(O)c(C)c3)[C@H]3[C@H]4C(=O)N(c5ccccc5)C(=O)[C@H]4[C@@H]2[S+]3[O-])ccc1O` (mixture of isomers), the values for the RBA (at Estrogen receptor beta [1]; in experiment [3]) were 0.007% and 0.009%, respectively. Further, the Activity on Estrogen receptor beta [2] is 3.4%; in experiment [4] it was 29%.
Turning to `Cc1cc(C2=C(c3ccc(O)c(C)c3)[C@H]3[C@@H](S(=O)(=O)Oc4cccc5ccccc45)C[C@@H]2[S+]3[O-])ccc1O` (relative stereo), it took 770 nM to reach a half-maximal effect on Estrogen receptor (EC50). Moreover, the RBA at Estrogen receptor beta [1] turned out to be 0.019%; in experiment [3], 0.236%. The values for the Activity (at Estrogen receptor beta [2]; in experiment [4]) were 10% and 42%, respectively.
Compound `O=S(=O)(Oc1ccccc1)[C@H]1C[C@H]2C(c3ccc(O)cc3)=C(c3ccc(O)cc3)[C@@H]1[S+]2[O-]` (relative stereo) showed an EC50 at Estrogen receptor of 670 nM. The figures for the RBA (on Estrogen receptor beta [1]; in experiment [3]) were 0.11% and 0.956%, respectively. Also, the Activity at Estrogen receptor beta [2] stood at 3.4%; in experiment [4], 85%.
Turning to `O=S(=O)(Oc1ccc(O)cc1)[C@H]1C[C@H]2C(c3ccc(O)cc3)=C(c3ccc(O)cc3)[C@@H]1[S+]2[O-]` (relative stereo), a half-maximal response at Estrogen receptor (EC50) required 1100 nM. Besides, the RBA at Estrogen receptor beta [1] worked out at 0.071%; in experiment [3], 0.077%. Further, the Activity at Estrogen receptor beta [2] is 10%; in experiment [4] it was 48%.
For `Cc1cc(O)ccc1C1=C(c2ccc(O)cc2C)[C@H]2[C@@H](S(=O)(=O)Oc3ccccc3)C[C@@H]1[S+]2[O-]` (relative stereo), in that order: 0.14 nM, 0.348%, 8.11%, 66% and 62%.
As for `COc1ccc(OS(=O)(=O)[C@H]2C[C@H]3C(c4ccc(O)cc4C)=C(c4ccc(O)cc4C)[C@@H]2[S+]3[O-])cc1` (relative stereo), the EC50 on Estrogen receptor is 210 nM. Moreover, the RBA at Estrogen receptor beta [1] was determined as 0.091%; in experiment [3], 0.741%. Besides, the Activity on Estrogen receptor beta [2] is 32%; in experiment [4] it was 76%.
Compound `Cc1cc(O)ccc1C1=C(c2ccc(O)cc2C)[C@H]2[C@@H](S(=O)(=O)Oc3ccccc3F)C[C@@H]1[S+]2[O-]` (relative stereo) had an EC50 at Estrogen receptor of 2.2 nM. For the same compound, the RBA on Estrogen receptor beta [1] was found to be 0.138%; in experiment [3], 3.53%. In addition, the results for the Activity (at Estrogen receptor beta [2]; in experiment [4]) were 54% and 56%, respectively.
`Cc1cc(O)ccc1C1=C(c2ccc(O)cc2C)[C@H]2[C@@H](S(=O)(=O)Oc3ccccc3Cl)C[C@@H]1[S+]2[O-]` (relative stereo) displayed an EC50 on Estrogen receptor of 2.8 nM. Moreover, the RBA at Estrogen receptor beta [1] is 0.227%; in experiment [3] it was 2.49%. Moreover, the Activity turned out to be 46% on Estrogen receptor beta [2] and 73% in experiment [4].
The corresponding values for `Cc1cc(O)ccc1C1=C(c2ccc(O)cc2C)[C@H]2[C@@H](S(=O)(=O)Oc3ccccc3Br)C[C@@H]1[S+]2[O-]` (relative stereo) are 14 nM, 0.07%, 2.21%, 21% and 67%.
In the case of `Cc1cc(O)ccc1C1=C(c2ccc(O)cc2C)[C@H]2[C@@H](S(=O)(=O)Oc3ccc(F)cc3)C[C@@H]1[S+]2[O-]` (relative stereo), on Estrogen receptor, the EC50 stood at 200 nM. Also, the RBA at Estrogen receptor beta [1] came out at 0.08%; in experiment [3], 2.18%. For the same compound, the Activity came to 45% on Estrogen receptor beta [2] and 74% in experiment [4].
For `Cc1cc(O)ccc1C1=C(c2ccc(O)cc2C)[C@H]2[C@@H](S(=O)(=O)Oc3ccc(Cl)cc3)C[C@@H]1[S+]2[O-]` (relative stereo), in that order: 110 nM, 0.083%, 2.13%, 50% and 67%.
At Estrogen receptor, `Cc1cc(O)ccc1C1=C(c2ccc(O)cc2C)[C@H]2[C@@H](S(=O)(=O)Oc3ccc(Br)cc3)C[C@@H]1[S+]2[O-]` (relative stereo) showed an EC50 of 110 nM. Also, the RBA was 0.297% at Estrogen receptor beta [1] and 3.37% in experiment [3]. The figures for the Activity (at Estrogen receptor beta [2]; in experiment [4]) were 100% and 71%, respectively.
Compound `Cc1cc(O)ccc1C1=C(c2ccc(O)cc2C)[C@H]2[C@@H](S(=O)(=O)Oc3cccc4ccccc34)C[C@@H]1[S+]2[O-]` (relative stereo) returned an EC50 on Estrogen receptor of 27 nM. In addition, the RBA was 0.18% on Estrogen receptor beta [1] and 0.998% in experiment [3]. For the same compound, the Activity at Estrogen receptor beta [2] is 83%; in experiment [4] it was 59%.
The compound `Cc1cc(O)ccc1C1=C(c2ccc(O)cc2C)[C@H]2[C@@H](S(=O)(=O)Oc3ccc(O)cc3)C[C@@H]1[S+]2[O-]` (relative stereo) registered an EC50 at Estrogen receptor of 9.2 nM. Besides, the RBA on Estrogen receptor beta [1] is 0.812%; in experiment [3], 2.21%. Further, the Activity worked out at 82% at Estrogen receptor beta [2] and 58% in experiment [4].
Regarding `Cc1cc(C2=C(c3ccc(O)c(C)c3)[C@H]3[C@@H](S(=O)(=O)Oc4ccccc4)C[C@@H]2[S+]3[O-])ccc1O` (relative stereo), a half-maximal effect at Estrogen receptor (EC50) was put at 12 nM. Moreover, the RBA on Estrogen receptor beta [1] was determined as 0.014%; in experiment [3] it was 3.49%. Also, the Activity on Estrogen receptor beta [2] turned out to be 3.8%; in experiment [4], 65%.
On Estrogen receptor, `COc1ccc(OS(=O)(=O)[C@H]2C[C@H]3C(c4ccc(O)c(C)c4)=C(c4ccc(O)c(C)c4)[C@@H]2[S+]3[O-])cc1` (relative stereo) displayed a half-maximal effective concentration (EC50) of 11000 nM. Besides, the RBA stood at 0.021% at Estrogen receptor beta [1] and 0.31% in experiment [3]. The Activity at Estrogen receptor beta [2] was found to be 9.8%; in experiment [4], 57%.
As for `Cc1cc(C2=C(c3ccc(O)c(C)c3)[C@H]3[C@@H](S(=O)(=O)Oc4ccccc4F)C[C@@H]2[S+]3[O-])ccc1O` (relative stereo), at Estrogen receptor, the EC50 is 1300 nM. The RBA on Estrogen receptor beta [1] stood at 0.01%. Besides, the figures for the Activity (on Estrogen receptor beta [2]; in experiment [4]) were 0% and 55%, respectively.
Take `Cc1cc(C2=C(c3ccc(O)c(C)c3)[C@H]3[C@@H](S(=O)(=O)Oc4ccccc4Cl)C[C@@H]2[S+]3[O-])ccc1O` (relative stereo): the 50% effective concentration (EC50) on Estrogen receptor turned out to be 2000 nM. Besides, the values for the RBA (at Estrogen receptor beta [1]; in experiment [3]) were 0.022% and 1.18%, respectively. In addition, the values for the Activity (at Estrogen receptor beta [2]; in experiment [4]) were 0% and 72%, respectively.
`Cc1cc(C2=C(c3ccc(O)c(C)c3)[C@H]3[C@@H](S(=O)(=O)Oc4ccccc4Br)C[C@@H]2[S+]3[O-])ccc1O` (relative stereo) displayed an EC50 on Estrogen receptor of 1200 nM. In addition, the values for the RBA (at Estrogen receptor beta [1]; in experiment [3]) were 0.014% and 0.516%, respectively. Moreover, the Activity on Estrogen receptor beta [2] amounted to 0%; in experiment [4], 51%.
The corresponding values for `Cc1ccc(C2=C(c3ccc(C)cc3)[C@H]3[C@@H](S(=O)(=O)Oc4ccc(O)cc4)C[C@@H]2[S+]3[O-])cc1` (relative stereo) are 5500 nM, 0.011%, 0.005%, 10% and 24%.
With `COc1ccc(OS(=O)(=O)[C@H]2C[C@H]3C(c4ccc(O)cc4)=C(c4ccc(O)cc4)[C@@H]2[S+]3[O-])cc1` (relative stereo), the RBA at Estrogen receptor beta [1] is 0.08%; in experiment [3], 0.074%. The Activity came to 19% on Estrogen receptor beta [2] and 48% in experiment [4].
Consider `Cc1cc(C2=C(c3ccc(O)c(C)c3)[C@H]3[C@@H](S(=O)(=O)Oc4ccc(O)cc4)C[C@@H]2[S+]3[O-])ccc1O` (relative stereo), for which the RBA came out at 0.009% at Estrogen receptor beta [1] and 0.109% in experiment [3].
With `Cc1cc(O)ccc1C1=C(c2ccc(O)cc2C)[C@H]2[C@@H](S(=O)(=O)Oc3cccc(Cl)c3)C[C@@H]1[S+]2[O-]` (relative stereo), the results for the RBA (at Estrogen receptor beta [1]; in experiment [3]) were 0.088% and 1.3%, respectively.
With `O=S(=O)(Oc1ccc(O)cc1)[C@H]1C[C@H]2C(c3ccccc3)=C(c3ccccc3)[C@@H]1[S+]2[O-]` (relative stereo), the values for the RBA (on Estrogen receptor beta [1]; in experiment [3]) were 0.008% and 0.005%, respectively. For the same compound, the Activity at Estrogen receptor beta [2] was 0%; in experiment [4], 22%.
